Reference: the NIST ThermoML archive (doi:10.1016/j.jct.2015.03.002)
Numbers after ± are expanded uncertainties.

Conditions: Liquid

CCCC[N+]1(C)CCCC1.FC(F)(F)C(F)(F)[P-](F)(F)(F)(C(F)(F)C(F)(F)F)C(F)(F)C(F)(F)F
viscosity [mPa·s]
Conditions | 10000 kPa | 15000 kPa | 25000 kPa | 50000 kPa | 75000 kPa | 100000 kPa | 125000 kPa | 150000 kPa
303.15 K, Concentric cylinders viscometry | 198.9 ± 21 | 221.8 ± 23 | 273.1 ± 29 | 465.5 ± 50 | 791.6 ± 86 | – | – | –
303.15 K, Falling or rolling sphere viscometry | 189.5 ± 10 | 212.4 ± 12 | 265.5 ± 17 | 454.7 ± 35 | 765.1 ± 70 | 1274 ± 140 | 2111 ± 270 | 3485 ± 500
313.15 K, Concentric cylinders viscometry | 118.9 ± 13 | 131.3 ± 14 | 162.6 ± 17 | 263.5 ± 28 | 434.8 ± 47 | – | – | –
313.15 K, Falling or rolling sphere viscometry | 113.5 ± 5 | 124.7 ± 5.7 | 150.6 ± 7.4 | 241.3 ± 15 | 386.8 ± 28 | 620.3 ± 53 | 995.1 ± 100 | 1597 ± 190
323.15 K, Concentric cylinders viscometry | – | – | – | – | 234.7 ± 33 | – | – | –
323.15 K, Falling or rolling sphere viscometry | 73.4 ± 2.8 | 80 ± 3.1 | 94.9 ± 3.9 | 145.4 ± 7.1 | 222.6 ± 13 | 340.5 ± 24 | 520.9 ± 42 | 797 ± 75
333.15 K, Falling or rolling sphere viscometry | 48 ± 1.7 | 52 ± 1.9 | 61 ± 2.2 | 90.7 ± 3.6 | 134.3 ± 6.3 | 198.1 ± 11 | 291.7 ± 19 | 429.1 ± 32
343.15 K, Falling or rolling sphere viscometry | 33.9 ± 1.2 | 36.5 ± 1.3 | 42.2 ± 1.5 | 60.5 ± 2.2 | 86.9 ± 3.4 | 124.5 ± 5.7 | 178.5 ± 9.5 | 255.8 ± 16
353.15 K, Falling or rolling sphere viscometry | 24.7 ± 0.9 | 26.6 ± 1 | 30.7 ± 1.1 | 43.4 ± 1.6 | 60.6 ± 2.2 | 84.1 ± 3.3 | 116 ± 5.1 | 159.3 ± 8.1

CCCC[N+]1(C)CCCC1.O=S(=O)([O-])C(F)(F)F [1-butyl-1-methylpyrrolidinium trifluoromethanesulfonate]
viscosity [mPa·s]
Conditions | 10000 kPa | 15000 kPa | 25000 kPa | 50000 kPa | 75000 kPa | 100000 kPa | 125000 kPa | 150000 kPa
303.15 K, Concentric cylinders viscometry | 147.2 ± 20 | 158.4 ± 21 | 181.8 ± 19 | 249.5 ± 26 | 341.1 ± 36 | – | – | –
303.15 K, Falling or rolling sphere viscometry | 144.8 ± 7.1 | 154.3 ± 7.8 | 174.9 ± 9.3 | 236.9 ± 14 | 317.7 ± 22 | 422.8 ± 32 | 559.5 ± 46 | 737.7 ± 67
313.15 K, Concentric cylinders viscometry | – | – | – | 148.1 ± 16 | 202.2 ± 22 | – | – | –
313.15 K, Falling or rolling sphere viscometry | 89.2 ± 3.6 | 94.8 ± 4 | 106.9 ± 4.7 | 142.7 ± 7 | 188.1 ± 10 | 245.4 ± 15 | 318.1 ± 22 | 410.1 ± 30
323.15 K, Falling or rolling sphere viscometry | 58.9 ± 2.2 | 62.5 ± 2.3 | 70.2 ± 2.7 | 92.3 ± 3.8 | 119.5 ± 5.4 | 153 ± 7.7 | 194.1 ± 11 | 244.7 ± 15
333.15 K, Falling or rolling sphere viscometry | 41.7 ± 1.6 | 43.9 ± 1.6 | 48.6 ± 1.8 | 62.3 ± 2.3 | 79 ± 3.1 | 99.6 ± 4.2 | 124.9 ± 5.8 | 156 ± 7.9
343.15 K, Falling or rolling sphere viscometry | 29.9 ± 1.1 | 31.4 ± 1.2 | 34.7 ± 1.3 | 44.2 ± 1.6 | 55.7 ± 2 | 69.6 ± 2.6 | 86.4 ± 3.5 | 106.8 ± 4.6
353.15 K, Falling or rolling sphere viscometry | 22.5 ± 0.8 | 23.7 ± 0.9 | 26.1 ± 1 | 32.7 ± 1.2 | 40.5 ± 1.5 | 49.4 ± 1.8 | 59.9 ± 2.2 | 72 ± 2.8

CC(C)CCCC(C)CCCC(C)CCCCC(C)CCCC(C)CCCC(C)C (configuration not stated) [2,6,10,15,19,23-hexamethyltetracosane]
viscosity [mPa·s], Falling or rolling sphere viscometry
Conditions | 10000 kPa | 15000 kPa | 25000 kPa | 50000 kPa | 75000 kPa | 100000 kPa | 125000 kPa | 150000 kPa
303.15 K | 27.4 ± 1 | 30.8 ± 1.1 | 38.2 ± 1.4 | 62.7 ± 2.3 | 98.5 ± 4.1 | 150.8 ± 7.4 | 227.4 ± 13 | 339.5 ± 23
313.15 K | 18.4 ± 0.7 | 20.4 ± 0.7 | 24.8 ± 0.9 | 39.1 ± 1.4 | 59.5 ± 2.2 | 88.7 ± 3.5 | 130.3 ± 6.1 | 189.8 ± 10
323.15 K | 13 ± 0.5 | 14.3 ± 0.5 | 17.1 ± 0.6 | 26.1 ± 1 | 38.7 ± 1.4 | 56.3 ± 2 | 80.9 ± 3.1 | 115.4 ± 5.1
333.15 K | 9.2 ± 0.3 | 10.1 ± 0.4 | 12.1 ± 0.4 | 18.2 ± 0.7 | 26.5 ± 1 | 37.8 ± 1.4 | 53.2 ± 1.9 | 74 ± 2.8
343.15 K | 7 ± 0.3 | 7.6 ± 0.3 | 9 ± 0.3 | 13.3 ± 0.5 | 19 ± 0.7 | 26.7 ± 1 | 37 ± 1.3 | 50.8 ± 1.8
353.15 K | 5.4 ± 0.2 | 5.9 ± 0.2 | 6.9 ± 0.3 | 10.1 ± 0.4 | 14.2 ± 0.5 | 19.5 ± 0.7 | 26.4 ± 1 | 35.5 ± 1.3
